Experimental data: patent publication US20210393553A1, “PHARMACEUTICAL COMBINATIONS FOR THE TREATMENT OF PAIN” (IMUNEKS FARMA ILAC SANAYI VE TICARET A.S., priority 2018, published 2021)
Several values for one entry are separate records, joined by “and”; a condition that tells them apart may be missing. Identical values can stand only once.

What was measured:
[1] = system: female Albino Wistar rats; assay: Hot plate test (heat induced pain model); type: in vivo
rats = assay: Tail Flick test; type: in vivo

| SMILES | time of peak of activity in hot plate test ([1]; rat, in vivo) | hot plate test latency ([1]; rat, in vivo, po) | tail flick results (tail flicking reaction time) (rats; rat, in vivo, po) | hot plate test latency ([1]; 15 min after oral gavage, hot plate 52.5° C., group average of 7 rats, cut-off 20 seconds, doses per Table 2) | hot plate test latency ([1]; 30 min after oral gavage, hot plate 52.5° C., group average of 7 rats, cut-off 20 seconds, doses per Table 2) | hot plate test latency ([1]; 45 min after oral gavage, hot plate 52.5° C., group average of 7 rats, cut-off 20 seconds, doses per Table 2) | hot plate test latency ([1]; 60 min after oral gavage, hot plate 52.5° C., group average of 7 rats, cut-off 20 seconds, doses per Table 2) | analgesic effect in the hot plate test, in words ([1]; comparison between groups / versus placebo) | tail flick results (tail flicking reaction time) (rats; 1 hour after oral administration by gavage, same dosages as hot plate study, average of 3 measurements) |
| --- | --- | --- | --- | --- | --- | --- | --- | --- | --- |
| COc1cccc(C2(O)CCCCC2CN(C)C)c1 (stereo not drawn) [Tramadol] | 30 min | 5.49 s and 6.90 s and 6.03 s and 6.19 s | 5.81 s | – | – | – | – | – | – |
| CC(C(=O)O)c1ccc(-c2ccccc2)c(F)c1 (stereo not drawn) [FBP, Flurbiprofen] | – | – | – | 4.87 s | 5.65 s | 5.15 s | 4.96 s | lowest analgesic effect compared to all the other groups except the placebo group | 4.95 s |
